Test results from US4393178A, “Fast crystallizing polyester compositions” (priority 1979, dated 1983).
Where two headings read alike, the source gives them in different places.

How the values were obtained:
[1] = Half-crystallisation time (t1/2), isothermal DSC; type: physicochemical
Protocol: A DSC 2 Perkin Elmer scanning calorimeter was used.
10 mg of the sample of polymer material are placed in a capsule and introduced into the apparatus, wherein the sample is quickly heated to a temperature of 290° C. at which it is maintained during 1 minute.
The molten polymer material is then very quickly cooled by means of liquid air (at a rate of 320° C. per minute) until the crystallisation temperature is reached.
The crystallisation isotherm is registered on a temperature-time graph and the peak appearing on the registered isotherm is taken as the half-crystallisation time (t1/2).

[2] = Degradation constant K (melt degradation performance); type: physicochemical
Protocol: (§1) The melt degradation performance is a measure of the extent of degradation under molten conditions. A convenient method of quantifying the performance is by measuring the "K value". A method for determining this value in the molten state using an Instron Capillary rheometer is given in a paper by J. Devaux et al in Makromol.
(§2) This method is carried out on samples prepared by reacting the salt with the polyester on a 2 roll-mill at a temperature above the melting point of the polyester for 5 minutes and then pressing the product obtained into a 2 mm thick sheet using the same temperature for 3 minutes before cooling to room temperature. The method is described for polyethylene terephthalate but can be readily adapted for other polyesters.
For polyethylene terephthalate the K value in the presence of salt should be less than 60.

[3] = ΔT = Tc(cooling) - Tn(heating), DSC; type: physicochemical
Protocol: An alternative method for assessing the effectiveness of nucleation of an additive is to compare the difference between the value of the crystallisation peak on cooling (Tc) with that on heating (Tn) for a composition containing an ionisable salt. The value obtained from this comparison, Tc(cooling) -Tn(heating) is termed ΔT. […] Samples of polyester together with 1% of the salt under test were mixed in a 2-roll mill at 270° C. for 5 minutes. The sample produced was pressed into 2 mm thick sheets at 270° C. for 3 minutes and then cooled to room temperature. 10 mg of the sample was placed in a capsule and rapidly heated to 290° C. After maintaining this temperature for 1 minute the capsule was quenched in water. The crystallisation peak temperatures on heating (Tn) and cooling (Tc) were determined using heating and cooling rates of 10° C./minute on a Perkin Elmer DSC 2 machine.

[4] = Solubility parameter δ of the acid
[5] = Crystallinity of injection moulded articles; type: physicochemical; conditions: 0.5% salt, mould 120 °C, cycling time 12 seconds, based on heat of fusion 24 Cal/g
Protocol: The extruded product of Example 6 has been dried (120° C.) in a ventilated oven. The obtained pellets have been moulded by injection in a Buhler Rover 63 machine.
Different cycling times have been experimented.

[6] = water; cited from earlier work
[7] = Crystallisation peak temperature on heating (Tn), DSC; type: physicochemical; conditions: 1% salt deposited from solution on PET, pressed 280 °C 1 minute; heating rate 16 °C/minute; listed as disodium salt of o-hydroxy benzoic acid
Protocol: In one such DSC technique the crystallisation peak temperature difference, Tn(composition)--Tn(polyester) is determined by measuring the crystallisation peak temperatures on heating for the composition in comparison with the polyester of the composition not containing the ionisable salt. The detailed procedure is as follows. Compositions were prepared from the polyester and the additive by mixing on a 2-roll mill at 300° C. for 2 minutes. The sample was taken from the mill and pressed into a film in a compression moulding machine. 10 mg samples of the composition were placed in a capsule, rapidly heated to 290° C. and maintained at that temperature for 1 minute. The capsule was then dropped into water to quench the polymer and prevent crystallisation. The sample was then placed in a Perkin Elmer DSC 2 machine and heated at a rate of 10° C./minute until reaching a temperature of 290° C. The crystallisation peak temperature observed on this heating cycle is recorded and compared with the value for the polyester not containing the additive.
Samples of polyethylene terephthalate (I.V. =0.73) containing 1% of the salts listed in Table 2 were prepared by compounding at 300° C. on a 2-roll mill for 2 minutes. The samples were evaluated to determine Tn(composition-Tn(polyester), the total number of end groups, the number of carboxylate groups and the number of hydroxyl and carboxyl groups.
The salts listed in Table 3 were deposited from solution on the surface of polyethylene terephthalate chip to give a concentration of 1% by weight of salt. The product was dried under vcuum at 96° C. for 3 hours. The compositions were pressed into film using a temperature of 280° C. for 1 minute. The DSC measurements were made after quenching from the melt to prevent crystallisation and using a heating rate of 16° C./minute.
1% by weight of the sodium salt of saccharin was deposited on the surface of granules of a polyethylene terephthalate homopolymer of I.V. =0.73 by evaporating an aqueous solution of the salt from the granules by drying at 96° C. under vacuum for 3 hours. The granules obtained were compression moulded into film by pressing at 280° C. for 60 second. The film was used for measurements of Tn at a heating rate of 16° C./minute.
The effect of the salts listed in Table 4 was determined by taking granules of a polymer of poly(ethylene terephthalate) homopolymer having an intrinsic viscosity of 0.73 and evaporating a solution of the salt in methanol or water from the surface of the granules by drying at 96° C. under vacuum for 3 hours. The proportions of polymer and solution used were such as to give a concentration of 1% of salt by weight of the final dry composition. The granules obtained were compression-moulded into film at 280° C. for various periods of time. The film was used for measurement of Tn as hereinbefore described.
Two samples of polyethylene terephthalate chip (I.V. =0.73) were coated from solution with 1% of the sodium salt of o-hydroxybenzoic acid and the disodium salt of the same acid respectively. After drying for 3 hours in a vacuum oven at 95° C. films were prepared by pressing the products for 1 minute at 280° C.

[8] = Crystallisation peak temperature on heating (Tn), DSC, block copolymer; type: physicochemical; conditions: 1% salt, 2-roll mill 270 °C 2 minutes, block copolymer; heating rate 10 °C/minute
Protocol: A block copolymer containing 5% by weight of polyethylene glycol units of molecular weight 1540 in chip form was blended with a solution of the sodium salt of o-chlorobenzoic acid to give a salt concentration of 1% by weight of the polyester. Samples were prepared for DSC analysis using the procedure of Example 15.
(§3) The polymer used in Example 16 and 1% of the disodium salt of o-hydroxy benzoic acid were compounded on a 2-roll mill at 270° C. for 2 minutes. […] (measured at a heating rate of 10° C./minute).

[9] = End group determination, block copolymer; type: physicochemical; conditions: 1% salt, 2-roll mill 270 °C 2 minutes
Protocol: The total number of end groups in the polyester were found by determining the intrinsic viscosity of the polyester and using the correlation between I.V. and number of end groups given in Transactions of the Faraday Societ 1961, Volume 57, pages 150 to 159. The numbers of hydroxyl and carboxyl groups were also determined according to the procedure given in this paper.
as §3

[10] = Degradation constant K, block copolymer; type: physicochemical; conditions: 1% salt, 2-roll mill 270 °C 2 minutes, compared with polyester itself
Protocol: as §1, with “Makromol. Chem. 179, 2201-2209 (1978).” for “Makromol.”
as §2, §3

[11] = Degradation constant K (melt degradation performance); type: physicochemical; conditions: 1% salt deposited from solution on PET (Examples 13-15); listed as disodium salt of o-hydroxy benzoic acid

O=C([O-])c1ccc([N+](=O)[O-])cc1Cl.[Na+]
t1/2 (sec) 110° C. [1]: 90 s
t1/2 (sec) 120° C. [1]: 48 s
K [2]: 39
ΔT [3]: 103
δ × pKH.sbsb.2O [4]: 26
crystallinity [5]: 40%
pKH.sbsb.2O [6]: 2

O=C(O)c1ccccc1O [ortho-ONa-benzoic acid]
t1/2 (sec) 110° C. [1]: 70 s
t1/2 (sec) 120° C. [1]: 49 s
K ([2]; 1% salt in PET, 2-roll mill 270 °C 5 min, molten state 290 °C): 24
ΔT ([3]; 1% salt in PET, 2-roll mill 270 °C 5 min, 10 °C/minute): 110 °C
Tn (16° C./min) [7]: 108 °C
Tn [8]: 100 °C
total number of end groups determined from the intrinsic viscosity [9]: 137
K value [10]: less than that for the polyester itself
K [11]: 24
